Publication PMC3850926, “Evaluation of the adverse event profile and pharmacodynamics of toceranib phosphate administered to dogs with solid tumors at doses below the maximum tolerated dose” (BMC Veterinary Research, 2013)
Like-named read-outs stand apart in the source and are kept apart here.

Columns and labels:
[1] = test system: AGASACA, thyroid carcinomas, head and neck carcinomas, nasal tumors; set-up: method as in PMID 22236194; conditions: median dose 2.8 mg/kg, cited from earlier work
[2] = test system: dogs with a variety of tumors; set-up: method as in PMID 12855656; conditions: cited from earlier work
dogs with solid tumors = test: Assessment of adverse events (VCOG-CTCAE); assay type: in vivo, dog
Experimental: All dogs were placed on famotidine at 0.5-1 mg/kg once per day at study initiation and owners were instructed to administer the toceranib in the morning with food. […] Dogs were evaluated for AEs on days 0, 7, 14, and 30 of study, as well as at interim time points as needed. AEs were defined and graded according to the published VCOG-CTCAE criteria. Disease progression or signs and symptoms definitely related to disease were not considered AEs.

[3] = cited from earlier work
[4] = number of AEs, 40 dogs, 2.4-2.9 mg/kg EOD, 30 days

## Cc1[nH]c(/C=C2\C(=O)Nc3ccc(F)cc32)c(C)c1C(=O)NCCN1CCCC1 [toceranib, Toceranib phosphate]
[1]
  clinical benefit rate (CR + PR + SD): exceeding 80%
[1]; varied by tumor type
  objective response rates: 25-75%
[2]; 2.5 mg/kg EOD, 16 dogs
  complete responses, CR (number of dogs): 4
  objective response (number of dogs): 6 dogs
  objective response (percent): 37.5%
  partial responses, PR (number of dogs): 2
  stable disease, SD (number of dogs): 5 dogs
[2]; 3.25 mg/kg EOD, 20 dogs
  CR (number of dogs): 2
  PR (number of dogs): 6
  objective response (number of dogs): 8
Dogs with solid tumors; 2.4-2.9 mg/kg EOD
  grade 3 or 4 GI adverse events: no grade 3 or 4 GI adverse events
Dogs with solid tumors; 6 had concurrent gastrointestinal upset
  dogs with increased BUN without concomitant increase in creatinine: 9 dogs
Dogs with solid tumors; 6 had mild anemia of chronic disease before treatment
  dogs with grade 1 anemia: Thirteen
Dogs with solid tumors; 40 dogs, 30 days
  clinical evidence of hepatotoxicity: no dogs
  dogs that developed grade 1 anorexia (number): Thirteen
  dogs that developed grade 1 anorexia (percent): 32.5%
  dogs that developed grade 1 diarrhea (number): Fifteen
  dogs that developed grade 1 vomiting (number): Eighteen
  dogs that developed grade 2 diarrhea: Six
  dogs with grade 1 increases in AST: Five
  dogs with grade 1 thrombocytopenia: 2 dogs
  dogs with grade 2 anorexia: 1 dogs
  dogs with grade 2 colitis: two
  dogs with grade 2 vomiting: 3 dogs
  dogs with grade 3 hypertension: 2 dogs
  dogs with grade 3 lameness: 1 dogs
  dogs with mild-to-moderate lameness (grade 1–2): 10 dogs
  dogs with more than one episode of grade 1 diarrhea: 10 dogs
  dogs with more than one event of grade 1 vomiting: 5 dogs
  dogs with transient grade 1 elevations in ALT: 7 dogs
Dogs with solid tumors; after 1–3 weeks of therapy
  dogs with grade 1 neutropenia (number): 20/40
Dogs with solid tumors; all AEs of the study
  share of AEs that were grade 1 or grade 2: 86%
  share of AEs that were grade 2: 12%
Dogs with solid tumors; blood pressure measured only in animals with signs
  dogs that developed hypertension (any grade): 3 dogs
Dogs with solid tumors; dog, in vivo
  adverse event profile compared to the label dose of 3.25 mg/kg EOD: substantially reduced adverse event profile
Dogs with solid tumors; end of study period
  dogs with grade 3 AST elevation: 1 dogs
Dogs with solid tumors; grade 1 event
  dogs with weight loss: 3 dogs
Dogs with solid tumors; grade 1 or 2, 40 dogs, 30 days
  dogs with lethargy (number): 13 dogs
  dogs with lethargy (percent): 32.5%
Dogs with solid tumors; initiated at 2.5 mg/kg
  dogs requiring a dose modification: five
Dogs with solid tumors; initiated at 2.75 mg/kg
  dogs requiring a dose modification: three
Dogs with solid tumors; [4]
  Alopecia, Grade 1: 1
  Anemia, Grade 1: 13
  Anorexia, Grade 1: 15
  Anorexia, Grade 2: 1
  Colitis, Grade 2: 2
  Constipation, Grade 1: 1
  Cough, Grade 1: 4
  Dermatitis, Grade 1: 1
  Diarrhea, Grade 1: 34
  Diarrhea, Grade 2: 6
  Epistaxis, Grade 1: 3
  Fever, Grade 2: 1
  Hand-foot syndrome, Grade 1: 1
  Hypertension, Grade 1: 1
  Hypertension, Grade 3: 2
  Hypopigmentation, Grade 1: 2
  Ileus, Grade 3: 1
  Increase ALP, Grade 1: 9
  Increase ALP, Grade 2: 2
  Increase ALP, Grade 3: 1
  Increase ALT, Grade 1: 7
  Increase ALT, Grade 3: 1
  Increase ALT, Grade 4: 1
  Increase AST, Grade 1: 5
  Increase AST, Grade 3: 1
  Increase BUN, Grade 1: 9
  Increase BUN, Grade 2: 1
  Increase CK, Grade 1: 2
  Lameness, Grade 1: 6
  Lameness, Grade 2: 8
  Lameness, Grade 3: 1
  Lethargy, Grade 1: 15
  Lethargy, Grade 2: 2
  Neutropenia, Grade 1: 20
  Neutropenia, Grade 2: 1
  Ocular discharge, Grade 1: 3
  Pancreatitis, Grade 3: 1
  Panting, Grade 1: 3
  Protein losing nephropathy, Grade 1: 4
  Pruritus, Grade 1: 1
  Thrombocytopenia, Grade 1: 2
  Vomiting, Grade 1: 23
  Vomiting, Grade 2: 3
  Weight loss, Grade 1: 3
  all adverse events, Grade 1 (total): 188
  all adverse events, Grade 2 (total): 27
  all adverse events, Grade 3 (total): 8
  all adverse events, Grade 4 (total): 1
Dogs with solid tumors; remainder grade 2
  lethargy, grade 1 episodes among the affected dogs: 11
Dogs with solid tumors; resolved after 1 week discontinuation
  dogs with depigmentation and thinning of the footpads in all 4 limbs: One
Dogs with solid tumors; the 3 affected dogs
  weight loss, percent of initial recorded body weight: 5-10%
Dogs with solid tumors; throughout the study period
  dogs with dose changed (drug holiday and/or dose reduction), number: 8 dogs
  dogs with dose changed (drug holiday and/or dose reduction), percent: 20%
Dogs with solid tumors; without an apparent cause
  patients that developed protein losing nephropathy (PLN): 4 patients
[3]; healthy beagle dogs
  dose proportionality of Cmax: proportional to doses ranging from 2.0 to 6.0 mg/kg
[3]; previous studies
  time of maximum drug concentration (Tmax): 5.3 to 9.3 h
[3]; prior studies
  time of Cmax post drug administration: 6 to 8 h
